According to US8206756B2, “Herbal composition for inflammatory disorders” (Piramal Life Sciences Limited, priority 2005, dated 2012):

Experiments:
TNF-α [1] = experiment: LPS-induced TNF-α production in hPBMCs (ELISA); type: cell-based; details: Homo sapiens; LPS-stimulated hPBMC
Protocol: Primary screening—Human peripheral blood mononuclear cells (hPBMCs). TNF-α production by lipopolysaccharides (LPS) in hPBMCs was measured according to the method described by Jansky, L. et al (Physiol. Res. 52: 593-598, (2003)). Blood was collected from healthy donors into Potassium EDTA vacutainer tubes (BD vacutainer). The PBMCs were isolated using gradient centrifugation in Histopaque-1077 solution (Sigma). Isolated PBMCs were suspended in RPMI 1640 culture medium (Gibco BRL, Pasley, UK) containing 10% fetal bovine serum (FBS) (Hyclone, Utah, USA), 100 U/ml penicillin (Sigma Chemical Co. St Louis, Mo.) and 100 μg/ml streptomycin (Sigma Chemical Co. St Louis, Mo.). The cell concentration was adjusted to 1×10^6 cells/ml. The viability as determined by trypan blue dye exclusion was uniformly ≧98%. The cell suspension (100 μl) was added to the wells of a 96-well culture plate. Following cell plating, 79 μl of the culture medium and 1 μl of eight different concentrations of the test samples (final concentration 0.03, 0.1, 0.3, 1, 3, 10, 30, 100 μg/ml) dissolved in DMSO (dimethylsulfoxide, Sigma, Mo., USA) were added to the cells. The final concentration of DMSO was adjusted to 0.5%. The vehicle (0.5% DMSO) was used as control. Rolipram (100, 300 μM) was used as a standard. The plates were incubated for 30 min at 37° C. in an atmosphere of 5% CO2. Finally, 20 μl (10 μg/ml) per well of LPS, (Escherchia coli 0127:B8, Sigma Chemical Co., St. Louis, Mo.) was added, for a final concentration of 1 μg/ml. […] The % inhibition was recorded. Percent cytotoxicity of the test samples compared to control was evaluated.
The effect of the plant extract on the proinflammatory cytokines: TNF-α, interleukin-1β (IL-1β), interleukin-6 (IL-6) and interleukin-8 (IL-8) was measured using the supernatants generated in the primary screening assay. […]
The effect of the Compound 1, on the proinflammatory cytokines: TNF-α interleukin-1β (IL-1β), interleukin-6 (IL-6) and interleukin-8 (IL-8) was measured using the supernatants generated in the primary screening assay. […]

IL-6 = IL-6 production by synovial cells from a RA patient; type: cell-based; details: Homo sapiens, Synovial cell, 10 hours
Protocol: (§1) Cytokine production by synovial cells obtained from a rheumatoid arthritis (RA) patient undergoing knee replacement surgery was measured according to the method described by Brennan, F. M. et al (The Lancet. July 29: 244-247, (1989)). The synovial membrane tissue was digested in DMEM (Gibco) containing 10% FBS, 100 U/ml penicillin and 100 μg/ml streptomycin, 4 mg/ml collagenase type I (Worthington), 1.5 μg/ml Dnase type I (Sigma) and 15 U/ml heparin and incubated at 37° C. for 3 hours. After incubation, the digested tissue was filtered through a 70-μm membrane and the cells washed 3 times in complete medium (DMEM with 10% FBS). The synovial cells were cultured at 1×10^6 cells/ml in presence/absence of the test sample for 10 hours. The supernatants were harvested by centrifugation and levels of the cytokines (TNF-α, IL-1β, IL-6, IL-8) measured by ELISA. To assess the cytotoxic effect of the plant extracts, the cellular viability test was performed using MTS reagent. The 50% inhibitory concentration (IC50) values were calculated by a nonlinear regression method using GraphPad software (Prism 3.03).
(§2) Effect on proinflammatory cytokines produced by synovial cells obtained from a RA patient was studied for compound 1 as described by procedure of example 8.

TNF-α [2] = experiment: TNF-α production by synovial cells from a RA patient; type: cell-based; details: Homo sapiens, Synovial cell, 10 hours
Protocol: as §1, §2

[3] = system: THP-1 cell adhesion to HUVECs; experiment: Adhesion of THP-1 mononuclear cells to HUVEC monolayers; type: cell-based, human; details: for Fluorescence Intensity: TNF-α 1 ng/ml; for Fold of control: unstimulated DMSO control = 1, stimulated = 18
Protocol: Adhesion studies were performed with the promonocytic cell line THP-1, which has been established as a useful model for monocytes in adhesion studies in Circ. Res., 97, 236-243, 2005, with modifications. THP-1 cells were washed twice with labeling medium (M200 plus LSGS). THP-1 cells (6×10^5 cells per ml) were labeled with 10 μg/ml bis-carboxyethyl-carboxyfluorescein acetoxymethylester (a fluorescent probe, BCECF-AM; Sigma) for 30 min at RT. After quenching with 0.1% BSA, the pellet was resuspended in labeling medium. To evaluate monocyte adhesion, HUVEC monolayers treated with TNF-α (1 ng/ml) in the presence or absence of various concentrations of test sample. The media was removed, washed and labeled-THP-1-cells were added to the wells (6×10^4 cells per well) and incubated for 10 minutes at RT in the dark. After co incubation, the wells were washed, filled with lysis buffer (0.1% Triton-X in 1.5 M Tris buffer) and incubated for 30 min. The fluorescence was measured using a fluorescent reader (PolarStar Optima, BMG Labtech) at an excitation peak of 485 nm and an emission peak of 520 nm. Values are means±SEM, representing fluorescent adhesion data. BAY 11-7082 [(E)-3-(4-methylphenylsulfonyl)-2-propenenitrile] was used as a standard and DMSO as vehicle control.

Compound: C=C1C(=O)OC2C3=C(C)CCCC3(C)CCC12O (stereo not drawn) [Compound 1, 3a-hydroxy-5a,9-dimethyl-3-methylene-3a,4,5,5a,6,7,8,9b-octahydro-3H-naphtho[1,2-b]furan-2-one]
- IC50 (TNF-α [1]): 700 nM
- IC50 (IL-6): 1400 nM
- IC50 (TNF-α [2]): 800 nM
- Fluorescence Intensity ([3]; 0.1 μM): 33421
- Fold of control ([3]; 0.1 μM): 13
- Fluorescence Intensity ([3]; 0.3 μM): 34024
- Fold of control ([3]; 0.3 μM): 13
- Fluorescence Intensity ([3]; 1 μM): 10195
- Fold of control ([3]; 1 μM): 4
- Fluorescence Intensity ([3]; 3 μM): 5728
- Fold of control ([3]; 3 μM): 2
- TNF-α stimulated monocytic THP-1 cell adhesion to HUVECs ([3]; at 1 μM): inhibited
